{
  "source": "patent US6420338B1",
  "about": "“Inhibition of the Src kinase family pathway as a method of treating HBV infection and hepatocellular carcinoma” (New York University Medical Center, priority 1997, dated 2002)",
  "tested_on": "c-Src",
  "test": "c-Src immunoprecipitation in vitro kinase assay (auto-phosphorylation and enolase trans-phosphorylation)",
  "assay_type": "cell-based",
  "details": "serum-starved NIH 3T3 cells; PDGF 100 ng/ml for 5 min",
  "method": "FIGS. 1A-1C Serum-starved NIH 3T3 cells were infected with AdCMV-X or -Xo viruses, c-Src or c-Fyn was immunoprecipitated, the pellet washed and assayed by incubation with the substrate enolase and [γ-^32P] ATP. Products were resolved by SDS-10%-PAGE then visualized and quantitiated by PhosphorImage analysis. c-Src (FIG. 1A) or c-Fyn (FIG. 1B) were immunoprecipitated 8 h p.i. from NIH 3T3 cell lysates expressing HBx or HBxo. Where indicated, cells were incubated with PDGF (100 ng/ml) for 5 min. (FIG. 1C) Transfected HBx activates c-Src in the cytoplasm. Chang cells were transfected with 10 μg pCMV-Xo (HBxo), PCMV-X (wt HBx) or pCMV-XNLS (nuclear HBx) expression plasmids, serum-starved for 24 h, c-Src immunoprecipitated and subjected to an in vitro trans-phosphorylation assay, then analyzed as above. […]\nSrc kinase assays were carried out essentially as described (Kypta et al., 1990, Cell 62:481-492). […] Src and Fyn kinase activity were measured by immunoprecipitating either Src (1 μg anti-Src antibodies) or Fyn (1 μg/ml anti-Fyn antibodies) from equal amounts of cell lysate. […] For the reactions containing the Src peptide substrate, TCA was added to a final concentration of 20%, an aliquot was spotted onto phosphocellulose paper (UBI), the filters were washed 3×5 minutes in 0.75% phosphoric acid and once in acetone, dried and analyzed by scintillation counting. […]",
  "data": [
    {"substance": "PDGF", "values": [
      {"measurement": "activation of c-Src (auto- and trans-phosphorylation)", "result": "3-4 fold"}
    ]}
  ]
}
